Patent publication US20230416238A1, “N-[(1,3-BENZOXAZOL-2-YL)-HETEROCYCLE]AMIDE DERIVATIVES FOR THE TREATMENT AND PROPHYLAXIS OF HEPATITIS B VIRUS INFECTION” (Hoffmann-La Roche Inc., priority 2020, published 2023)
pIC50: −log10 of the molar value.

Key:
Format in all cases: cell-based
HBsAg = experiment: PHH HBV natural infection assay, HBsAg (alphalisa); conditions: Hepatitis B virus, Hepatocyte, read-out: HBsAg IC50
Outline: (§1)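 Primary human hepatocytes infected with HBV at 200 GE/cell plus 4% PEG8000 for 24 h, then sandwich-cultured 72 h in medium with 1% DMSO. Compound applied twice at 72-h intervals; supernatant HBsAg and HBeAg quantified by AlphaLISA.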

[1] = Cytotoxicity in PHH natural infection assay (Cell Counting Kit-8); conditions: HBV-infected primary human hepatocytes, CCK8
Outline: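 HBV-infected primary human hepatocytes (200 GE/cell, 4% PEG8000, 24 h), then sandwich-cultured 72 h. Cells dosed at varying concentrations for two 72-hour cycles, with medium refreshed. Cytotoxicity read by CCK-8 at end of treatment.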

HBeAg = experiment: PHH HBV natural infection assay, HBeAg (alphalisa); conditions: Hepatitis B virus, Hepatocyte, read-out: HBeAg IC50
Outline: as §1

SMILES	pIC50 (HBsAg)	CC50 at 144 h [1] [µM]	pIC50 (HBeAg)
O=C(NC1CCC2(CC1)CCN(c1nc3cc(Cl)ccc3o1)CC2)C1CCC(F)(F)CC1 [Example 102, N-[3-(5-chloro-1,3-benzoxazol-2-yl)-3-azaspiro[5.5]undecan-9-yl]-4,4-difluoro-cyclohexanecarboxamide]	5.44	> 100	5.42
CC[S+]([O-])c1ccc(C(=O)NC2CCC3(CC2)CCN(c2nc4cc(Cl)ccc4o2)CC3)o1 (stereo not drawn) [Example 103, N-[3-(5-chloro-1,3-benzoxazol-2-yl)-3-azaspiro[5.5]undecan-9-yl]-5-ethylsulfinyl-furan-2-carboxamide]	5.87	72.7	5.73
O=C(NC1CCC2(CC1)CCN(c1nc3cc(Cl)ccc3o1)CC2)c1ccc([S+]([O-])CC2CC2)o1 (stereo not drawn) [Example 104, N-[3-(5-chloro-1,3-benzoxazol-2-yl)-3-azaspiro[5.5]undecan-9-yl]-5-(cyclopropylmethylsulfinyl)furan-2-carboxamide]	5.93	94.8	6.00
O=C(NC1CCC2(CC1)CCN(c1nc3cc(Cl)ccc3o1)CC2)c1ccnc(C(F)(F)F)c1 [Example 105, N-[3-(5-chloro-1,3-benzoxazol-2-yl)-3-azaspiro[5.5]undecan-9-yl]-2-(trifluoromethyl)pyridine-4-carboxamide]	5.95	59	5.99
COc1cc(C(=O)NC2CCC3(CC2)CCN(c2nc4cc(Cl)ccc4o2)CC3)ccn1 [Example 106, N-[3-(5-chloro-1,3-benzoxazol-2-yl)-3-azaspiro[5.5]undecan-9-yl]-2-methoxy-pyridine-4-carboxamide]	6.23	> 100	6.32
Cc1cc(C(=O)NC2CCC3(CC2)CCN(c2nc4cc(Cl)ccc4o2)CC3)ccn1 [Example 107, N-[3-(5-chloro-1,3-benzoxazol-2-yl)-3-azaspiro[5.5]undecan-9-yl]-2-methyl-pyridine-4-carboxamide]	6.30	> 100	6.37
NS(=O)(=O)c1ccc(C(=O)NC2CCC3(CC2)CCN(c2nc4cc(Cl)ccc4o2)CC3)o1 [Example 108, N-[3-(5-chloro-1,3-benzoxazol-2-yl)-3-azaspiro[5.5]undecan-9-yl]-5-sulfamoyl-furan-2-carboxamide]	5.17	> 10	5.38
CS(=N)(=O)c1ccc(C(=O)NC2CCC3(CC2)CCN(c2nc4cc(Cl)ccc4o2)CC3)o1 (stereo not drawn) [Example 109, N-[3-(5-chloro-1,3-benzoxazol-2-yl)-3-azaspiro[5.5]undecan-9-yl]-5-(methylsulfonimidoyl)furan-2-carboxamide]	5.23	> 100	5.33
O=C(NC1CCC2(CC1)CCN(c1nc3ccccc3o1)CC2)c1ccnc(S(=O)(=O)C2CC2)c1 [Example 110, N-[3-(1,3-benzoxazol-2-yl)-3-azaspiro[5.5]undecan-9-yl]-2-cyclopropylsulfonyl-pyridine-4-carboxamide]	5.23	> 10	5.25
O=C(NC1CCC2(CC1)CCN(c1nc3cc(Cl)ccc3o1)CC2)c1ccc(S(=O)(=O)NC(=O)C2CCC2)o1 [Example 111, N-[3-(5-chloro-1,3-benzoxazol-2-yl)-3-azaspiro[5.5]undecan-9-yl]-5-(cyclobutanecarbonylsulfamoyl)furan-2-carboxamide]	5.26	85.7	5.46
CS(=O)(=O)Cc1ccc(C(=O)NC2CCC3(CC2)CCN(c2nc4cc(Cl)ccc4o2)CC3)o1 [Example 112, N-[3-(5-chloro-1,3-benzoxazol-2-yl)-3-azaspiro[5.5]undecan-9-yl]-5-(methylsulfonylmethyl)furan-2-carboxamide]	5.43	> 10	5.37
CS(=O)(=O)c1ccc(C(=O)NC2CCC3(CC2)CCN(c2nc4cc(Cl)ccc4o2)CC3)o1 [Example 113, N-[3-(5-chloro-1,3-benzoxazol-2-yl)-3-azaspiro[5.5]undecan-9-yl]-5-methylsulfonyl-furan-2-carboxamide]	5.44	> 100	5.49
CCS(=N)(=O)c1ccc(C(=O)NC2CCC3(CC2)CCN(c2nc4cc(Cl)ccc4o2)CC3)o1 (stereo not drawn) [Example 114, N-[3-(5-chloro-1,3-benzoxazol-2-yl)-3-azaspiro[5.5]undecan-9-yl]-5-(ethylsulfonimidoyl)furan-2-carboxamide]	5.45	93.3	5.51
O=C(NC1CCC2(CC1)CCN(c1nc3cc(Cl)ccc3o1)CC2)c1ccc(C(F)(F)F)o1 [Example 115, N-[3-(5-chloro-1,3-benzoxazol-2-yl)-3-azaspiro[5.5]undecan-9-yl]-5-(trifluoromethyl)furan-2-carboxamide]	5.54	> 100	5.58
C[S+]([O-])c1ccc(C(=O)NC2CCC3(CC2)CCN(c2nc4cc(Cl)ccc4o2)CC3)o1 (stereo not drawn) [Example 116, N-[3-(5-chloro-1,3-benzoxazol-2-yl)-3-azaspiro[5.5]undecan-9-yl]-5-methylsulfinyl-furan-2-carboxamide]	5.54	68.5	5.63
CCS(=O)(=O)c1ccc(C(=O)NC2CCC3(CC2)CCN(c2nc4cc(Cl)ccc4o2)CC3)o1 [Example 117, N-[3-(5-chloro-1,3-benzoxazol-2-yl)-3-azaspiro[5.5]undecan-9-yl]-5-ethylsulfonyl-furan-2-carboxamide]	5.62	> 100	5.54
O=C(NC1CCC2(CC1)CCN(c1nc3cc(Cl)ccc3o1)CC2)c1ccnc(S(=O)(=O)C2CC2)c1 [Example 118, N-[3-(5-chloro-1,3-benzoxazol-2-yl)-3-azaspiro[5.5]undecan-9-yl]-2-cyclopropylsulfonyl-pyridine-4-carboxamide]	5.63	> 10	5.63
N=S(=O)(CC1CC1)c1ccc(C(=O)NC2CCC3(CC2)CCN(c2nc4cc(Cl)ccc4o2)CC3)o1 (stereo not drawn) [Example 119, N-[3-(5-chloro-1,3-benzoxazol-2-yl)-3-azaspiro[5.5]undecan-9-yl]-5-(cyclopropylmethylsulfonimidoyl)furan-2-carboxamide]	5.72	85.8	5.87
N=S(=O)(c1ccc(C(=O)NC2CCC3(CC2)CCN(c2nc4cc(Cl)ccc4o2)CC3)o1)C1CC1 (stereo not drawn) [Example 120, N-[3-(5-chloro-1,3-benzoxazol-2-yl)-3-azaspiro[5.5]undecan-9-yl]-5-(cyclopropylsulfonimidoyl)furan-2-carboxamide]	5.81	66.6	5.85
O=C(NC1CCC2(CC1)CCN(c1nc3cc(Cl)ccc3o1)CC2)c1ccc(S(=O)(=O)CC2CC2)o1 [Example 121, N-[3-(5-chloro-1,3-benzoxazol-2-yl)-3-azaspiro[5.5]undecan-9-yl]-5-(cyclopropylmethylsulfonyl)furan-2-carboxamide]	5.81	> 100	5.94
O=C(NC1CCC2(CC1)CCN(c1nc3cc(Cl)ccc3o1)CC2)c1ccc(S(=O)(=O)C2CC2)o1 [Example 122, N-[3-(5-chloro-1,3-benzoxazol-2-yl)-3-azaspiro[5.5]undecan-9-yl]-5-cyclopropylsulfonyl-furan-2-carboxamide]	6.42	> 100	6.33
O=C(NC1CC2CN(c3nc4cc(Cl)ccc4o3)CC2C1)c1ccc(C(F)(F)F)o1 (stereo not drawn) [Example 123, N-[2-(5-chloro-1,3-benzoxazol-2-yl)-3,3a,4,5,6,6a-hexahydro-1H-cyclopenta[c]pyrrol-5-yl]-5-(trifluoromethyl)furan-2-carboxamide]	5.32	> 100	5.26
O=C(NC1CC2CN(c3nc4cc(Cl)ccc4o3)CC2C1)C1CCS(=O)(=O)C1 (stereo not drawn) [Example 124, N-[2-(5-chloro-1,3-benzoxazol-2-yl)-3,3a,4,5,6,6a-hexahydro-1H-cyclopenta[c]pyrrol-5-yl]-1,1-dioxo-thiolane-3-carboxamide]	5.18	> 100	4.89
O=C(NC1C2CN(c3nc4cc(Cl)ccc4o3)CC21)c1ccc(C(F)(F)F)o1 (stereo not drawn) [Example 125, N-[3-(5-chloro-1,3-benzoxazol-2-yl)-3-azabicyclo[3.1.0]hexan-6-yl]-5-(trifluoromethyl)furan-2-carboxamide]	5.32	> 100	5.27
